The text below walks through data of patent US4968672A, “Adenosine receptor prodrugs” (priority 1987, dated 1990).

Where a name gives a salt, the structure may show the parent alone. Read-outs that look alike come from different tables or passages of the source. Bounds are passed on as bounds.

This experiment addresses T1, A1 adenosine receptors (Rattus norvegicus, UniProt P25099).
T1 construct: rat cerebral cortex membranes; from tissue; host or cells: rat cerebral cortex membranes
T1 sequence (P25099 1-326): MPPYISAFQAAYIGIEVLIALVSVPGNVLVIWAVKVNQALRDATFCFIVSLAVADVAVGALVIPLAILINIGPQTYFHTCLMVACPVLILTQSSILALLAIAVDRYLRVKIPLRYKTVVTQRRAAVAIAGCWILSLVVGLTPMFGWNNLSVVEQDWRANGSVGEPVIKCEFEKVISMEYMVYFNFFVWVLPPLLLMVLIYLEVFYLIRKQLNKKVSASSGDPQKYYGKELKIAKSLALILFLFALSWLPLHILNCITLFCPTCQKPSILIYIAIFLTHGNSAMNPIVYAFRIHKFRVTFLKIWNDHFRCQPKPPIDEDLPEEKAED
Put plainly: membrane binding assay at A1 adenosine receptors (Tables 1 and 2). From the text: Table 2 lists prodrugs (including Routes A and B of FIG. 2) and chemical intermediates, based on xanthine and adenosine functionalized congener and the method of synthesis. The potency of each compound at A1 adenosine receptors is indicated by the Ki (inverse relationship to potency) in a membrane binding assay.

Setting [1] is: Table 1, prodrug before cleavage, read-out: Ki(nM) at A1 Before Cleavage.

As usually defined, the Ki is the dissociation constant of the complex between target and ligand, obtained from inhibition or displacement. `CCCn1c(=O)c2[nH]c(-c3ccc(OCC(=O)NCCNC(=O)[C@@H](NC(=O)[C@H](Cc4ccc(O)cc4)NC(=O)OCc4ccccc4)C(C)C)cc3)nc2n(CCC)c1=O` [CbzTyrValXAC]: under “Table 2, read-out: Ki (A1(nM))”, the Ki amounted to 3.7 nM.
For the compound `CCCn1c(=O)c2[nH]c(-c3ccc(OCC(=O)NCCNC(=O)[C@@H](Cc4ccc(N)cc4)NC(=O)OC(C)(C)C)cc3)nc2n(CCC)c1=O` [Compound 10], the Ki (Table 2, read-out: Ki (A1(nM))) came to 32 nM.
For the compound `CCCCCC=CCC=CCCCCCCCC(=O)NC(Cc1ccc(OC(=O)CCCCCCCC=CCC=CCCCCC)cc1)C(=O)NCC(=O)NCCNC(=O)COc1ccc(-c2nc3c([nH]2)c(=O)n(CCC)c(=O)n3CCC)cc1` (stereo not shown) [Linoleyl-Tyr(O-linoleyl)-GlyXAC], the inhibition constant Ki is, setting by setting: under setting [1], 20 nM; (Table 2, read-out: Ki (A1(nM))) 20 nM.
As for `CCCCCCCC/C=C/CCCCCCCC(=O)OCCNC(=O)COc1ccc(-c2nc3c([nH]2)c(=O)n(CCC)c(=O)n3CCC)cc1` [O-elaidoyl-XHC, Elaidic ester of hydroxy congener], the Ki (Table 2, read-out: Ki (A1(nM))) came to 85 nM.
Consider `CCCCC/C=C\C/C=C\CCCCCCCC(=O)NCCNC(=O)COc1ccc(-c2nc3c([nH]2)c(=O)n(CCC)c(=O)n3CCC)cc1` [N-linoleyl-XAC], for which, where the note is “Table 2, read-out: Ki (A1(nM))”, the inhibition constant Ki is 35 nM.
Still for that read-out and setting: as for `CCCn1c(=O)c2c(nc(-c3ccc(OCC(=O)NCCNC(=O)OCc4ccccc4)cc3)n2Cc2ccccc2)n(CCC)c1=O` [NCbz(N7-benzyl)XAC], the figure is 95 nM; as for `CCCn1c(=O)c2[nH]c(-c3ccc(OCC(=O)NCCOC(C)=O)cc3)nc2n(CCC)c1=O` [Compound 40], 12 nM.
With `CCCCCCCCCCCCCC(=O)NCCNC(=O)COc1ccc(-c2nc3c([nH]2)c(=O)n(CCC)c(=O)n3CCC)cc1` [drawing 10], under setting [1], the inhibition constant (Ki) came to 49 nM.
In the case of `CCCCCCCCCCCCCCCCCC(=O)OCCNC(=O)COc1ccc(-c2nc3c([nH]2)c(=O)n(CCC)c(=O)n3CCC)cc1` [O-stearoyl-XHC], the Ki by setting is: under setting [1], 208 nM; (Table 2, read-out: Ki (A1(nM))) 208 nM.
For `CCCCCCCC/C=C/CCCCCCCC(=O)NCCNC(=O)Cc1ccc(NC(=O)Cc2ccc(Nc3ncnc4c3ncn4[C@@H]3O[C@H](CO)[C@@H](O)[C@H]3O)cc2)cc1` [Compound 37], the “potency in the blocked form” value is recorded as “highly potent in the blocked form”. In addition, the inhibitory constant (Ki) (Table 2, read-out: Ki (A1(nM))) is < 0.3 nM.
As to `CCCn1c(=O)c2[nH]c(-c3ccc(OCC(=O)NCCNC(=O)CC[C@H](N)C(=O)OCc4ccccc4)cc3)nc2n(CCC)c1=O` [TFA.HGlu(XAC)OBzl, Glutamic acid (gamma-XAC) alpha benzyl ester trifluoroacetate], the Ki came out at 1.8 nM.
As to `CCCn1c(=O)c2[nH]c(-c3ccc(OCC(=O)NCCNC(=O)CC[C@H](N)C(=O)O)cc3)nc2n(CCC)c1=O` [HGlu(XAC)OH], the Ki (Table 2, read-out: Ki (A1(nM))) amounted to 17 nM.
For `CCCn1c(=O)c2[nH]c(-c3ccc(OCC(=O)NCCNC(=O)CN(CC(=O)O)C(=O)OCC4c5ccccc5-c5ccccc54)cc3)nc2n(CCC)c1=O` [HO2 CCH2N(FMOC)CH2 COXAC, 8-[N -Carboxymethyl-N -(9-fluorenylmethyloxycarbonyl) -[[[[[[[[[amino]methyl]carbonyl]amino]ethyl]amino]carbonyl]methyl]-oxy]phenyl]-1,3-dipropylxanthine], the Ki (Table 2, read-out: Ki (A1(nM))) was found to be 170 nM.
On the same count and under the same terms, as for `CCCn1c(=O)c2[nH]c(-c3ccc(OCC(=O)NCCNC(=O)[C@H](N)Cc4ccc([N+](=O)[O-])cc4)cc3)nc2n(CCC)c1=O` [TFA.HD(p-NO2)PheXAC], the figure is 4.3 nM.
Still for that read-out and setting: as for `CCCn1c(=O)c2c(nc(-c3ccc(OCC(=O)NCCN)cc3)n2Cc2ccccc2)n(CCC)c1=O` [(N7-benzyl)XAC], the figure is 250 nM.
In the case of `CCCn1c(=O)c2[nH]c(-c3ccc(OCC(=O)NCCNC(=O)CNC(=O)[C@H](Cc4ccc(O)cc4)NC(=O)OCc4ccccc4)cc3)nc2n(CCC)c1=O` [CbzTyrGlyXAC], the inhibitory constant (Ki) under setting [1] stood at 4 nM and the Ki (Table 2, read-out: Ki (A1(nM))) was determined as 4 nM.
Consider `CCCCCCCC/C=C\CCCCCCCC(=O)OCC(COP(=O)(O)OCCNC(=O)COc1ccc(-c2nc3c([nH]2)c(=O)n(CCC)c(=O)n3CCC)cc1)OC(=O)CCCCCCC/C=C\CCCCCCCC` (stereo not shown) [Compound 32, XCC-phosphatidylethanolamine], for which the “potency at adenosine A1 receptors relative to compound 33 / to hydrolysis product” value is recorded as “of comparable potency”. For the same compound, the inhibition constant (Ki) (Table 2, read-out: Ki (A1(nM))) turned out to be 24 ± 1 nM.
